Assay results published in US20080318246A1, “Deeply quenched enzyme sensors” (The Albert Einstein College of Medicine of Yeshiva …, priority 2007, published 2008).
Square brackets hold non-standard residues; d marks the D form. Peptide text beside a SMILES is read from it. * marks the point of attachment. Acetyl(1-pyrenyl) = O=C(Cc1ccc2ccc3cccc4ccc1c2c34)*; Carminic acid = quencher bound covalently; Ala(Pyr) = not defined here; Dap = NC[C@H](N)C(=O)O

Experiments:
peptide P2 = test: Apparent KD of lead quencher dyes with peptide P2 (quenching of pyrene fluorescence); assay type: binding; details: with 5 μM pyrene-labeled peptide P2, 100 mM Tris HCl pH 7.5, inner filter corrected
Method: KD values were acquired for the set of the ten lead quenchers with peptide P2, in order to obtain a target range for the quencher:peptide ratios to be employed in the subsequent assays (vide infra). These apparent KD values were determined using the quenching of pyrene fluorescence as a barometer of peptide/quencher complex stability. […] An inner filter effect (at high dye concentrations) was corrected as previously described (Levine (1977) Clin. Chem. 23:2292-301).

peptide P5 = test: Apparent KD of lead quencher/peptide pair, peptide P5; assay type: binding
Method: (§1) Varying concentrations of 10 dyes (FIG. 2 Panel B), ranging from 0.5-500 μM, were added to 5 μM pyrene-labeled P2 peptide in 100 mM Tris HCl pH 7.5 buffer (96 well plates). […] After correcting for the inner filter effect, the percentage of quench was plotted against the concentration of the dye. A nonlinear regression analysis fit of the data to the rectangular hyperbola model using the Sigma Plot version 8.02 software was used to obtain apparent KD values.

[1] = biological target: phosphorylated P5 peptide; test: Apparent KD of quencher with phosphorylated P5 peptide; assay type: binding
Method: as §1

PKA [2] = biological target: T1, PKA (Mus musculus, UniProt P05132); test: Control: phosphorylation-induced fluorescence change of pyrene peptides without quenching dye, with 14-3-3τ; assay type: biochemical, murine; design: made in house; details: absence of quenching dye, ATP, 5 μM peptide
PKA [3] = biological target: T1, PKA; test: Fluorescence increase of covalently quenched peptides P13, P14 upon phosphorylation by PKA; assay type: biochemical; details: for change in fluorescence upon phosphorylation by PKA: in the absence of 14-3-3
Method: Pyrene-substituted peptides P13 (FIG. 15 Panel A, SEQ ID NO:21) and P14 (FIG. 15 Panel B, SEQ ID NO:22) were synthesized. […] The assay was performed with a total volume of 200 μL and was initiated with the addition of PKA enzyme. […]

peptide P9 = test: Apparent KD of lead quencher/peptide pair, peptide P9; details: read-out: Apparent KD; with peptide P9
Method: as §1

| Molecule | Kd (peptide P2) [µM] | % Fluorescence Enhancement (PKA [2]) [%] | also measured |
| --- | --- | --- | --- |
| Cc1cc(-c2ccc(/N=N/c3ccc4c(S(=O)(=O)O)cc(S(=O)(=O)O)c(N)c4c3O)c(C)c2)ccc1/N=N/c1ccc2c(S(=O)(=O)O)cc(S(=O)(=O)O)c(N)c2c1O [D3, Evans Blue] | 2.8 ± 0.8 |  |  |
| Nc1c(S(=O)(=O)O)cc(Nc2ccc(Nc3nc(Cl)nc(Nc4cccc(S(=O)(=O)O)c4)n3)c(S(=O)(=O)O)c2)c2c1C(=O)c1ccccc1C2=O [D6, Reactive Blue 2] | 19.6 ± 3.4 |  |  |
| O=[N+]([O-])c1ccc2c(N=Nc3ccc4ccccc4c3O)c(O)cc(S(=O)(=O)[O-])c2c1.[Na+] [D18, Eriochrome Black T] | 14.3 ± 3.3 |  |  |
| Nc1ccc(N=Nc2ccc(-c3ccc(N=Nc4c(S(=O)(=O)[O-])cc5cc(S(=O)(=O)[O-])c(N=Nc6ccccc6)c(O)c5c4N)cc3)cc2)c(N)c1.[Na+].[Na+] [D34, Chlorazol Black E] | 7.7 ± 1.5 |  |  |
| O=S(=O)([O-])c1ccc(N=Nc2ccc(N=Nc3c(O)c(S(=O)(=O)[O-])cc4cc(S(=O)(=O)[O-])ccc34)c(S(=O)(=O)[O-])c2)cc1.[Na+].[Na+].[Na+].[Na+] [D42, Ponceau S] | 11.2 ± 2.7 |  |  |
| O=C([O-])c1c(Cl)c(Cl)c(Cl)c(Cl)c1-c1c2cc(I)c(=O)c(I)c-2oc2c(I)c([O-])c(I)cc12.[Na+].[Na+] [D43, Rose Bengal] | 7.5 ± 1.6 |  | Kd (peptide P5; with peptide P5): 0.4 ± 0.03 µM; Kd (peptide P5; with unphosphorylated P5 peptide): 0.4 ± 0.03 µM; Kd [1]: 0.21 ± 0.04 µM |
| O=C(O)c1nn(-c2ccc(S(=O)(=O)O)cc2)c(O)c1N=Nc1ccc(S(=O)(=O)O)cc1 [D47, Tartrazine] | 15 ± 2.1 |  |  |
| Cc1cc(-c2ccc(/N=N/c3c(S(=O)(=O)O)cc4cc(S(=O)(=O)O)cc(N)c4c3O)c(C)c2)ccc1/N=N/c1c(S(=O)(=O)O)cc2cc(S(=O)(=O)O)cc(N)c2c1O [D48, Trypan Blue] | 11.9 ± 3.6 |  |  |
| CC(=O)NCC(=O)N[C@@H](CCCNC(=N)N)C(=O)N[C@H](C(=O)NCC(=O)N[C@@H](CCCNC(=N)N)C(=O)N[C@@H](CCCNC(=N)N)C(=O)N[C@@H](CNC(=O)Cc1ccc2ccc3cccc4ccc1c2c34)C(=O)N[C@@H](CO)C(=O)N[C@@H](Cc1ccc(O)cc1)C(=O)N1CCC[C@H]1C(N)=O)[C@@H](C)O [P2, Ac-GRTGRRDap(Pyr)SYP-amide] (Ac-GRTGRR[Dap](Acetyl(1-pyrenyl))SYP-NH2) |  | 51 |  |
| C[C@@H](O)[C@H](NC(=O)[C@H](CCCNC(=N)N)NC(=O)CNC(=O)CCCCCNC(=O)Cc1ccc2ccc3cccc4ccc1c2c34)C(=O)NCC(=O)N[C@@H](CCCNC(=N)N)C(=O)N[C@@H](CCCNC(=N)N)C(=O)N[C@@H](Cc1ccccc1)C(=O)N[C@@H](CO)C(=O)N[C@@H](Cc1ccc(O)cc1)C(=O)N1CCC[C@H]1C(N)=O [P9] |  | 48 |  |
| Ac-GRDap(Pyr)GRRFSYP-amide [P4] |  | 40 |  |
| Ac-GRTDap(Pyr)RRFSYP-amide [P3] |  | 19 |  |
| Ac-GRTGRRFSDap(Pyr)P-amide [P1] |  | 0 |  |
| AcGAla(Pyr)TGRRDap(Carminic acid)SLPA-amide (Ac-G[Ala(Pyr)]TGRR[Dap](Carminic acid)SLPA-NH2; reading uncertain) [P14] |  |  | change in fluorescence upon phosphorylation by PKA (PKA [3]): No significant change in fluorescence |
| AcGAla(Pyr)TGRRDap(Reactive Blue 2)SLPA-amide [P13] |  |  | change in fluorescence upon phosphorylation by PKA (PKA [3]): No significant change in fluorescence; increase in fluorescence upon phosphorylation by PKA (PKA [3]; in the presence of 14-3-3τ (2.1 μM)): 1.5-2.3 fold |
| Aniline Blue WS [D27] | 18.1 ± 2.6 |  | Kd (peptide P9): 0.6 ± 0.03 µM |
